# Source: PubChem BioAssay AID1963965 (Molecular Pharmacology Branch, DTP, NCI, 2024)
# Tested on: 996289-038-R-J1-PDC spheroid viability
# Experiment: Anticancer human tumor 996289-038-R-J1-PDC patient-derived colon adenocarcinoma cell line growth inhibition [PI3K]
# Details: spheroids with HUVEC and MSC; for IC50: curve of first compound; for viability, T/C: stronger effect = lower value
# Excerpt: Combinatorial screen of targeted agents with the PI3K inhibitors inavolisib, alpelisib, duvelisib, and copanlisib in multi-cell type tumor spheroids
# A high-throughput screen of multi-cell type tumor spheroids was designed to identify active combinations of targeted small molecules and PI3K pathway inhibitors. Complex spheroids include a stromal component modeled by human endothelial cells (HUVEC) and fibroblasts modeled by human mesenchymal stem cells (MSCs). The concentration ranges selected for each drug and investigational agent were based upon clinically achievable concentrations if the clinical Cmax of the agent was known.
# Compounds. The drugs and investigational agents: inavolisib (NSC800729), alpelisib (NSC765974), duvelisib (NSC772469), copanlisib (NSC816437), ipatasertib (NSC767898), afuresertib (NSC778305), talazoparib (NSC767125), sapanisertib (NSC764658), selumetinib (NSC741078), tovorafenib (DAY101, NSC766906), vemurafenib (NSC761431), ravoxertinib (NSC781343), sotorasib (NSC818433), MRTX1133 (NSC 836407), abemaciclib (NSC 768073), palbociclib (NSC758247), venetoclax (NSC 766270), SY5609 (NSC837396), enzalutamide (NSC755605), and darolutamide (NSC825331), were obtained from the National Cancer Institute (NCI) Developmental Therapeutics Program Chemical Repository. The FDA-approved anticancer drug set is available from the NCI Developmental Therapeutics Program. […] The stock solutions were prepared in dimethyl sulfoxide (DMSO, Sigma-Aldrich, St. Louis, MO, cat. D2650) at 800-fold the tested concentration and stored at -70 degrees C prior to their use. All drugs and investigational agents were tested over a range starting from a high concentration at or near the clinical Cmax and decreasing in half-log increments. If the clinical Cmax for an agent had not been determined, the highest concentration tested was 10 microM.
# Cell Culture. All cells were maintained in an incubator at 37 degrees C and 5% CO2 with 95% humidity. The PDC lines were cultured according to standard operating procedures established by the NCI PDMR (https://pdmr.cancer.gov/sops/default.htm). All PDCs were thawed and cultured in Matrigel-coated flasks prepared with a working solution of 1X Ham's F-12 nutrient mix, without supplementation (Invitrogen, Waltham, MA, cat. 11765054), 100 U/mL penicillin-streptomycin (Invitrogen, cat. 15140122), and 2.5% Matrigel (Corning Inc., Corning, NY, cat. 354248) for the first three passages. The 354836-022-R-J1-PDC, 475296-252-R-J1-PDC, and 997726-040-R-J2-PDC lines were cultured in 6A media, which includes advanced DMEM/F-12 (Thermo Fisher Scientific, cat. 12634028), 10 mM HEPES (Thermo Fisher Scientific, cat. 15630080), 1X GlutaMAX supplement (Thermo Fisher Scientific, cat. 35050061), 0.1 mg/mL primocin (InvivoGen, San Diego, CA, cat. ant-pm-2), 10% defined fetal bovine serum, heat inactivated (HyClone Laboratories Inc., Logan, UT, cat. SH30070.03HI), 50% L-WRN conditioned media (ATCC, cat. CRL-3276), 1.25 mM N-Acetyl-L-cysteine (Sigma-Aldrich, cat. A9165), 10 mM nicotinamide (Sigma-Aldrich, cat. N0636), 1X B-27 supplement (Thermo Fisher Scientific, cat. 17504044), 1X N-2 supplement (Thermo Fisher Scientific, cat. 17502048), and 10 microM Y-27632 dihydrochloride (Tocris Bioscience, Bristol, United Kingdom, cat. 1254). The 624824-186-R-J2-PDC line was cultured in 6C/Colon 1B media, which includes all 6A media components plus 50 ng/mL human EGF recombinant protein (Thermo Fisher Scientific, cat. PHG0311). […]
# 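Note: spheroids exposed to compounds for seven days before viability read.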
# 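Throughout, for viability, T/C: luminescence used as a proxy for viable cell amount; percent viability relative to DMSO vehicle control as 100%.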
structure (smiles),measurement,setting,value
CCN1CCN(Cc2ccc(Nc3ncc(F)c(-c4cc(F)c5nc(C)n(C(C)C)c5c4)n3)nc2)CC1 + CC(Nc1ccc2c(c1)OCCn1cc(N3C(=O)OCC3C(F)F)nc1-2)C(N)=O,IC50,second compound 0.00316 µM,> 1000 nM
same,IC50,second compound 0.01 µM,> 1000 nM
same,IC50,second compound 0.0316 µM,> 1000 nM
same,IC50,second compound 0.1 µM,> 1000 nM
same,IC50,second compound 0.316 µM,772 nM
same,IC50,second compound 1 µM,53.8 nM
same,"viability, T/C","second compound 0.00316 µM, first compound 0.00316 µM",97.1%
same,"viability, T/C","second compound 0.00316 µM, first compound 0.01 µM",93.1%
same,"viability, T/C","second compound 0.00316 µM, first compound 0.0316 µM",93.2%
same,"viability, T/C","second compound 0.00316 µM, first compound 0.1 µM",84.8%
same,"viability, T/C","second compound 0.00316 µM, first compound 0.316 µM",76.9%
same,"viability, T/C","second compound 0.00316 µM, first compound 1 µM",78.3%
same,"viability, T/C","second compound 0.01 µM, first compound 0.00316 µM",98.5%
same,"viability, T/C","second compound 0.01 µM, first compound 0.01 µM",98.9%
same,"viability, T/C","second compound 0.01 µM, first compound 0.0316 µM",83.2%
same,"viability, T/C","second compound 0.01 µM, first compound 0.1 µM",75.8%
same,"viability, T/C","second compound 0.01 µM, first compound 0.316 µM",82.9%
same,"viability, T/C","second compound 0.01 µM, first compound 1 µM",82.8%
same,"viability, T/C","second compound 0.0316 µM, first compound 0.00316 µM",94.9%
same,"viability, T/C","second compound 0.0316 µM, first compound 0.01 µM",83.2%
same,"viability, T/C","second compound 0.0316 µM, first compound 0.0316 µM",78.9%
same,"viability, T/C","second compound 0.0316 µM, first compound 0.1 µM",69.8%
same,"viability, T/C","second compound 0.0316 µM, first compound 0.316 µM",79.8%
same,"viability, T/C","second compound 0.0316 µM, first compound 1 µM",67.5%
same,"viability, T/C","second compound 0.1 µM, first compound 0.00316 µM",78.6%
same,"viability, T/C","second compound 0.1 µM, first compound 0.01 µM",75.1%
same,"viability, T/C","second compound 0.1 µM, first compound 0.0316 µM",74.7%
same,"viability, T/C","second compound 0.1 µM, first compound 0.1 µM",66.1%
same,"viability, T/C","second compound 0.1 µM, first compound 0.316 µM",61.3%
same,"viability, T/C","second compound 0.1 µM, first compound 1 µM",65.8%
same,"viability, T/C","second compound 0.316 µM, first compound 0.00316 µM",71.3%
same,"viability, T/C","second compound 0.316 µM, first compound 0.01 µM",73.9%
same,"viability, T/C","second compound 0.316 µM, first compound 0.0316 µM",64.3%
same,"viability, T/C","second compound 0.316 µM, first compound 0.1 µM",54.7%
same,"viability, T/C","second compound 0.316 µM, first compound 0.316 µM",57.3%
same,"viability, T/C","second compound 0.316 µM, first compound 1 µM",48.4%
same,"viability, T/C","second compound 1 µM, first compound 0.00316 µM",53.7%
same,"viability, T/C","second compound 1 µM, first compound 0.01 µM",53.2%
same,"viability, T/C","second compound 1 µM, first compound 0.0316 µM",52.6%
same,"viability, T/C","second compound 1 µM, first compound 0.1 µM",47.4%
same,"viability, T/C","second compound 1 µM, first compound 0.316 µM",46.4%
same,"viability, T/C","second compound 1 µM, first compound 1 µM",45%
